Test results: ChEMBL document CHEMBL1201862, “PubChem BioAssay data set” (2004)
Active and inactive are the calls of the source. Rule as the data show it: actives have a measured EC50 and inactives only a lower limit.

Columns and labels:
[1] = NIH3T3 cell viability loss – ATP luminescence, mouse fibroblasts, counter-screen, dose response (AID 2010); type: functional, cell-based;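 also: cells exposed to compound for about 90 hours before reading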
[2] = Trypanosoma cruzi growth suppression in host cells – NIH3T3 host cells, beta-gal luminescence, confirmation (AID 2044); type: functional, cell-based;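 also: intracellular parasites grown in NIH/3T3 mouse fibroblasts as host cells; luminescent beta-galactosidase reporter signal from transgenic T. cruzi replicating inside host cells; inhibitors lower the luminescence signal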
[3] = test system: H4; assay: Luminescence Cell-Based Dose Response HTS to Identify Activators of 5'UTR Stem-Loop Driven Prion Protein mRNA Translation in H4 Neuroglioblastoma Cells. [Related pubchem assays: 1829 (Project Summary), 1814 (Primary HTS)]; type: functional; details: Homo sapiens
[4] = Luminescence Cell-Based Dose Confirmation HTS to Identify Activators of 5'UTR Stem-Loop Driven Alpha-Synuclein mRNA Translation in H4 Neuroglioblastoma Cells. [Related pubchem assays: 1829 (Project Summary), 1814 (Primary HTS)]; type: functional
[5] = Luminescence Cell-Based Dose Response HTS to Identify Activators of Luciferase Translation or Activity in H4 […] Cells. [Related pubchem assays: 1829 (Project Summary), 1814 (Primary HTS)]; type: functional
[6] = target: T1, Heat shock factor protein 1 (Mus musculus, UniProt P38532); assay: decrease of HSF1-responsive luciferase luminescence – cell-based, NIH3T3, dose retest, confirmation (AID 2382); type: functional;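 also: NIH3T3 fibroblasts with HSF1-driven luciferase reporter stressed by proteasome inhibitor MG132; luminescence from HSF1-driven luciferase expression after 8 hours of MG132 stress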
T1 sequence (P38532 whole entry): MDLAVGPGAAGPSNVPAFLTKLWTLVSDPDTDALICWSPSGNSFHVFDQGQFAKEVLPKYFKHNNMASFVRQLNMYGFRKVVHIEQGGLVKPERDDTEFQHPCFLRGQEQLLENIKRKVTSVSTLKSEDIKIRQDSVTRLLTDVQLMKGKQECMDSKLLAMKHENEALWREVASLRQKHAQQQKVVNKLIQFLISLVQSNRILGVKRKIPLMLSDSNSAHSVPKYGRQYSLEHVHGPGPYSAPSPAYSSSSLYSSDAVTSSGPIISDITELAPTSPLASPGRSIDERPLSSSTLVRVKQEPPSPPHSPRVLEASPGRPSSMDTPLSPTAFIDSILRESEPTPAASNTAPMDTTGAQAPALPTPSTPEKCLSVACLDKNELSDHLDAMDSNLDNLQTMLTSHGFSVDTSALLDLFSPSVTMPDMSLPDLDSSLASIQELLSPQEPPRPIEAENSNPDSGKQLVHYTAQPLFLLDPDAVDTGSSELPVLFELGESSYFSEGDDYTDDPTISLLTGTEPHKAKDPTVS

SMILES: CC(C)Cc1nnc(NC(=O)c2cccc(S(=O)(=O)N3CCN(C)CC3)c2)s1
- EC50 [1]: > 60 µM (not active)
- EC50 [2]: 0.1 µM (active)

SMILES: Fc1ccc(-c2csc(/C=C/c3ccc4c(c3)OCO4)n2)cc1
- EC50 [3]: 46.8 µM (active)
- EC50 [4]: 9.2 µM (active)
- EC50 [5]: 9.07 µM (active)

SMILES: COc1ccc(N2CCN(C(=O)CSc3ncnc4scc(-c5ccc(C)cc5)c34)CC2)cc1
- EC50 [1]: > 60 µM (not active)
- EC50 [2]: 1.03 µM (active)

SMILES: COC(=O)c1ccc(OCc2cc(=O)n3ccsc3n2)cc1
- EC50 [4]: 21.2 µM (active)
- EC50 [5]: > 120 µM (not active)

SMILES: CCN(CC)CCN1C(=O)Cn2c(C)c(C)c3cccc1c32
- EC50 [1]: > 60 µM (not active)
- EC50 [2]: 0.206 µM (active)

SMILES: Cc1cc(C)[n+]2n1C([O-])=C(c1ccccc1)C2=O
- EC50 [3]: 13.1 µM (active)
- EC50 [5]: 29.1 µM (active)

SMILES: O=C(/C=C/c1ccccc1)NCCC1=CCCCC1
- EC50 [3]: 13.1 µM (active)
- EC50 [4]: 0.378 µM (active)
- EC50 [5]: 2.93 µM (active)

SMILES: O=C(CSc1cccc2cccnc12)N1CCCC1
- EC50 [1]: 8.3 µM (active)
- EC50 [2]: 0.299 µM (active)

SMILES: O=C(Nc1ccccc1)[C@@H]1[C@@H]2C(=O)N(c3ccc(F)cc3)C(=O)[C@@H]2[C@H]2C=CC=NN21
- EC50 [3]: > 120 µM (not active)
- EC50 [4]: > 120 µM (not active)
- EC50 [5]: > 60 µM (not active)

SMILES: CC(C)C(=O)Nc1cccc(-c2nc3ncccc3o2)c1
- EC50 [6]: > 195 µM (not active)

SMILES: Cc1ccccc1NC(=O)N1C2CCCC1CC(NC(=O)C1CC1)C2 (stereo unspecified)
- EC50 [6]: > 195 µM (not active)

SMILES: O=C(CCCNC(=O)/C(=C\c1ccccc1F)NC(=O)c1ccccc1)OCc1ccccc1
- EC50 [6]: > 195 µM (not active)

SMILES: CCCCN(C)C(=O)CCC(=O)Nc1ccc2nc(N3CCN(C)CC3)cc(C)c2c1
- EC50 [6]: > 195 µM (not active)

SMILES: CCOC(=O)CN1CC23C=CC(O2)C(C(=O)NC2CCCCC2)C3C1=O (stereo unspecified)
- EC50 [6]: > 195 µM (not active)

SMILES: CC(C)(C)CC(=O)NCCc1csc(-c2ccccc2)n1
- EC50 [1]: > 60 µM (not active)
- EC50 [2]: 1.1 µM (active)

SMILES: O=C(Nc1ccc([N+](=O)[O-])cc1)C1(c2ccccc2)CCOCC1
- EC50 [6]: > 195 µM (not active)

SMILES: O=C(CCC1CCCNC1)c1ccccc1 (stereo unspecified)
- EC50 [6]: > 195 µM (not active)

SMILES: COCCCNC(=O)Cn1cnc2sc(C)c(S(=O)(=O)N3CCN(c4ccccc4OC)CC3)c2c1=O
- EC50 [6]: > 195 µM (not active)

SMILES: Cc1[nH]c2ccccc2c1C(=O)CSc1nc2cc(S(=O)(=O)N3CCCCC3)ccc2o1
- EC50 [1]: 18.2 µM (active)
- EC50 [2]: 2.54 µM (active)

SMILES: Fc1ccc(COc2ccc(Br)cc2CNCc2ccncc2)cc1
- EC50 [1]: > 30 µM (not active)
- EC50 [2]: 0.78 µM (active)

SMILES: CCOc1ccc(CN2CCN(Cc3cccn3-c3cccnc3)CC2CCO)cc1 (stereo unspecified)
- EC50 [1]: > 60 µM (not active)
- EC50 [2]: 1.89 µM (active)

SMILES: Cc1cc(N2CCN(C)CC2)nc2ccc(NC(=O)c3cccnc3Cl)cc12
- EC50 [6]: > 195 µM (not active)

SMILES: O=C(O)C(=O)Nc1ccc(NC(=O)C(c2ccccc2)c2ccccc2)cc1
- EC50 [6]: > 195 µM (not active)

SMILES: Cc1ccc(C(=O)NCc2ccc(N3CCN(C)CC3)cc2)cc1C
- EC50 [6]: > 195 µM (not active)

SMILES: COc1ccc(CCN(Cc2cccs2)S(=O)(=O)c2ccc(S(=O)(=O)N(C)C3CCCCC3)cc2)cc1OC
- EC50 [1]: > 60 µM (not active)
- EC50 [2]: 0.878 µM (active)

SMILES: CC(=O)NCC1=C(NC(C)=O)C2CC1C(C)(C)C2C (stereo unspecified)
- EC50 [6]: > 195 µM (not active)

SMILES: O=C(/C=C/c1ccc2c(c1)OCO2)Nc1nncs1
- EC50 [3]: 18.6 µM (active)
- EC50 [5]: 0.1 µM (active)

SMILES: COc1ccccc1C(=O)NCC(=O)N/N=C/c1ccc2c(c1)OCO2
- EC50 [6]: > 195 µM (not active)

SMILES: CNC(=S)N/N=C/c1c(Cl)cccc1Cl
- EC50 [6]: > 195 µM (not active)

SMILES: O=C(N/N=C\c1ccc2c(c1)OCO2)c1ccc(Cn2cc(Br)c([N+](=O)[O-])n2)o1
- EC50 [1]: > 60 µM (not active)
- EC50 [2]: 0.408 µM (active)

SMILES: CC(C)(C)C1CCc2[nH]c3ccccc3c(=O)c2C1 (stereo unspecified)
- EC50 [1]: > 60 µM (not active)
- EC50 [2]: 1.1 µM (active)
